How the values were obtained:
protein kinase Erk 1/2 = test: ELISA assay for the detection of the tPA-induced activation of Erk 1/2 in primary hippocampal neurons; format: cell-based, mouse; settings: for normalised Erk 1/2 values, Mean value (arbitrary units): phospho-Erk 1/2 vs total Erk 1/2, 15 minutes pre-incubation with inhibitor, then tPA 20 μg/ml for 1 hour, tPA alone = 1, negative control 0.61
Text: The capacity to inhibit the activation of the protein kinase Erk 1/2 presented by the Compound of formula (I) has been determined by means of the ELISA (Enzyme-Linked Immunoadsorbent Assay) technique, as described in the Examples section.
In the ELISA assays, neurons from primary cultures of hippocampi isolated from mouse embryos (day 16.5 of gestation) were used, following the protocol described by Goslin and Banker (Goslin K and Banker G (1991) Culturing Nerve Cells, MIT Press, Cambridge, Mass.). This culture was used because the hippocampus is the main region affected in Alzheimer's disease and they are non-transformed cells.
10,000 cells/well were seeded in 96 well plates (Nunc) pre-treated with poly-L-Lys (SIGMA) and left under culture for 7 days.
The treatment with tPA was performed by adding it at 20 μg/ml (without changing the medium), for 1 hour. The treatment with the inhibitor, the compound of formula (I), was performed by means of a 15 minutes pre-incubation prior to the addition of tPA, as described above.
Following the treatments, the cells were fixed with methanol at a temperature of −20° C. for 5 min, and an ELISA assay was performed in order to detect the activation of Erk 1/2.
The wells were washed three times with TBST (Tris-buffered saline, 0.1% Triton® X-100) and blocked with 5% horse serum in TBST for 1 h at 37° C. They were once again washed with TBST, […] of the corresponding primary antibody (anti-phospho-Erk 1/2 Cell Signalling, catalogue number 9101, 1/500 or total Erk 1/2, Upstate catalogue number 06-182 1/1000 in 3% bovine serum albumin in TBST) were added and it was incubated overnight at 4° C.
After 4 washings with TBST, 0.45 μg/ml of the secondary alkaline-phospatase-coupled anti-rabbit antibody (DAKO, 1/800 in 3% bovine serum albumin in TBST) were added and it was kept for 1 h at 37° C.
4 washings with TBST were performed and it was developed using 4-methylumbelliferyl phosphate as the substrate (1 mg/ml in 0.2 M triethanolamine at pH 8.5) for 30 min at room temperature in the dark.
The results were quantified by means of fluorescence reading using the Cytofluor 235 fluorometer with an excitation filter of 360/40 and an emission filter of 460/40.
All the treatments were performed in sextuplicate in each experiment: 3 points for phosphorylated Erk 1/2 and 3 points for total Erk 1/2. At least 4 independent experiments were performed.
The following were used as controls: • 1) cells without treatment (negative control), • 2) cells treated with tPA and without an inhibitor (positive control), and • 3) cells incubated only with the secondary antibody and the substrate (negative control in the ELISA technique). […]

Hippocampal neurons = test: TUNEL assay for the detection of cellular apoptosis induced by β-amyloid peptide in hippocampal neurons; format: cell-based, mouse
Protocol: In a second in vitro assay, the apoptosis in nerve cells was measured by means of the TUNEL technique described in R. Sgonc et al., Trends Genetics, 1994, 10, 41-42. Apoptosis is the function that controls the death of a biological unit in a programmed manner.
Hippocampal neurons (obtained as described in Example 1) were cultured in 24 well plates (Nunc) at a density of 100,000 cells/well.
After 7 days under culture, β-amyloid peptide 1-40 (Aβ1-40) (Amyloid βProtein (1-40) trifluoroacetate salt, Bachem) (20 μM) was added and the cells were incubated for 72 h.
In order to study the inhibitory effect of the compound of formula (I), the cells were pre-incubated for 15 minutes with said compound at a concentration of 30 μM prior to the addition of the β-amyloid peptide, Aβ1-40.
After 72 h, the cells were fixed and the apoptotic neurons were detected by means of the TUNEL technique (Sgonc, R. et al. (1994) Trends Genetics 10, 41-42) with the in situ “cell death detection” kit, POD (Roche). In said kit, fluorescein-dUTP was used to label the DNA chain cleavage, which makes it possible to directly visualise the staining of the nuclei of the apoptotic neurons in the fluorescence microscope.
Parallel to this, the neuronal nuclei were stained with a specific monoclonal antibody (mouse anti-neuronal nuclei (NeuN) monoclonal antibody, 0.5 μg/ml, Chemicon) and a secondary anti-mouse Cy3 antibody (3.75 μg/ml, Jackson Immunoresearch Laboratories).
The quantification was performed by counting the positive nuclei following the TUNEL staining in 3 random fields and expressed as the % of dead neurons with respect to the total number of neurons in each field. Each inhibitor was assayed in triplicate in 4 independent experiments.
As a negative control, cells cultured for the same period of time, without treatment with the β-amyloid peptide (measurement of baseline spontaneous apoptosis), were used. As a positive control of 100% apoptosis, treatment with DNAse (20 U/ml) was used, following the procedure indicated in the commercial kit.
The value of the positive control (treatment with DNAse) was considered to be 100 and the rest of the measurements were adjusted in relation to this value.

[1] = 15 minutes pre-incubation with inhibitor (compound of formula (I) 30 μM), then Aβ1-40 20 μM for 72 h, DNAse positive control = 100, negative control 0.4

Molecule | normalised Erk 1/2 values, Mean value (arbitrary units) (protein kinase Erk 1/2) | apoptosis of nerve cells, Mean value (%) of dead neurons (Hippocampal neurons; [1]) | inhibition of the activation of the protein kinase Erk 1/2 induced by tPA (in words) (protein kinase Erk 1/2; ELISA, hippocampal neurons) | inhibition of the apoptosis induced by the β-amyloid peptide (in words) (Hippocampal neurons; TUNEL, neurons cultured in vitro) | apoptosis of nerve cells, Mean value (%) of dead neurons (Hippocampal neurons; Aβ1-40 20 μM alone for 72 h, no inhibitor, DNAse positive control = 100)
C[C@]12N[C@H](Cc3ccccc31)c1ccccc12 [Dizocilpine (MK-801), dizocilpine] | 0.73 arbitrary units | – | – | – | –
CC12CC3CC(C)(C1)CC(N)(C3)C2 [Memantine, memantine] | 0.75 arbitrary units | 4% | – | – | –
NCC12CCC3CC(CC3C1)C2 (centres unmarked) [Compound of formula (I)] | 0.61 arbitrary units | 2.8% | effectively inhibits | efficiently inhibited | –
Amyloid βProtein (1-40) trifluoroacetate salt [β-amyloid peptide (Aβ1-40)] | – | – | – | – | 83.8%

From patent publication US9000047B2, “Compound inhibiting activation of the enzyme Erk 1/2 to be used in the treatment of neurodegenerative illnesses” (Farmalider, S.A., priority 2010, dated 2015)
